According to article PMC4714714 (Journal of medicinal chemistry, 2015):
Like-named read-outs stand apart in the source and are kept apart here.

Tests used:
[1] = tested on: KB human nasopharyngeal carcinoma cells (FRα/PCFT/RFC); assay: Growth inhibition of KB human tumor cells; assay type: cell-based
[2] = tested on: SKOV3 human ovarian tumor xenografts; assay: In vivo efficacy trial against SKOV3 xenografts in SCID mice; conditions: folate-deficient diet; 4 28 mg/kg, 7 16 mg/kg i.v. Q4dx3
[3] = target: TS (Homo sapiens, UniProt P04818); assay: Isolated enzyme assay TS; assay type: biochemical; conditions: nucleoside protection and isolated enzyme assays (not shown)
[4] = target: T1, DHFR (Homo sapiens, UniProt P00374); assay: Isolated enzyme assay DHFR; assay type: biochemical; conditions: nucleoside protection and isolated enzyme assays (not shown)
T1 sequence (P00374 1-187): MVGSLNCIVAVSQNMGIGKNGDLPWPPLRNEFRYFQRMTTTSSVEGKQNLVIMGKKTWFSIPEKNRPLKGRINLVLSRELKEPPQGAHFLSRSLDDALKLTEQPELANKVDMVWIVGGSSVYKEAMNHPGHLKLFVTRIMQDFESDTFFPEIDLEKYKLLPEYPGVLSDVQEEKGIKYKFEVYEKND

[5] = target: T2, recombinant human GARFTase (Homo sapiens, UniProt P22102); assay: In vitro GARFTase inhibition assay; assay type: biochemical; conditions: from Ki values
T2 sequence (P22102 810-1010 limits assumed): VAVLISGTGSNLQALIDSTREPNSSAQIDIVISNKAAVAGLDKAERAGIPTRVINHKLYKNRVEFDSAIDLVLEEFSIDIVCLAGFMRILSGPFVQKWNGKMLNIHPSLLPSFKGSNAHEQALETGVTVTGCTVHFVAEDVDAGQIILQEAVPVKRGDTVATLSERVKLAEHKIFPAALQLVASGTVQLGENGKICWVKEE

[6] = target: FRα (Homo sapiens, UniProt P15328); assay: [3H]folic acid competition binding to FRα on RT16 CHO cells
[7] = target: T3, PCFT (Homo sapiens, UniProt Q96NT5); assay: PCFT uptake and transport kinetics in R2/PCFT4 CHO cells; assay type: cell-based
T3 sequence (Q96NT5 1-459): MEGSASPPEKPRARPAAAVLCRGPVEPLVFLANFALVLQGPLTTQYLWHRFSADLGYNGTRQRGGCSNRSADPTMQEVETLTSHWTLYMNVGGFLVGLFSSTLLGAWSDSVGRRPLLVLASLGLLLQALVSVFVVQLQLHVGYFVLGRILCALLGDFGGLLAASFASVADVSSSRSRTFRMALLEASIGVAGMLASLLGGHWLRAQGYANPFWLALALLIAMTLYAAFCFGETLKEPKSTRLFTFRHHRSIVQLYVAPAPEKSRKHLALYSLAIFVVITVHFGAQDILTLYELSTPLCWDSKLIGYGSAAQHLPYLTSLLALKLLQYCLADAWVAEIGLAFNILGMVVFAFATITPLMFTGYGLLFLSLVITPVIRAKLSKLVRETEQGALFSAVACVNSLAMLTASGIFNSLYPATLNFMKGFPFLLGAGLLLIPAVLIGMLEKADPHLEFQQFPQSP

[8] = target: FRβ (Homo sapiens, UniProt P14207); assay: [3H]folic acid competition binding to FRβ on D4 CHO cells
[9] = read-out: IC50 for inhibition of proliferation, KB

Chain of TS (P04818 whole entry): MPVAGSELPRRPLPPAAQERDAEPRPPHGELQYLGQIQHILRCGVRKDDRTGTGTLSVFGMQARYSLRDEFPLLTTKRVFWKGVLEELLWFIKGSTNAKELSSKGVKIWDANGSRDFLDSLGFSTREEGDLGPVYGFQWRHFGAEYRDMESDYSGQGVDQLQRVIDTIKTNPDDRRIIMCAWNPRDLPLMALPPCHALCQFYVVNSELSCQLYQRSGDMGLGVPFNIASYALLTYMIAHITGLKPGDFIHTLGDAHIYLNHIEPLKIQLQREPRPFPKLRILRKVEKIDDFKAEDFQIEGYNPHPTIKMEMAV
Chain of FRβ (P14207 17-255): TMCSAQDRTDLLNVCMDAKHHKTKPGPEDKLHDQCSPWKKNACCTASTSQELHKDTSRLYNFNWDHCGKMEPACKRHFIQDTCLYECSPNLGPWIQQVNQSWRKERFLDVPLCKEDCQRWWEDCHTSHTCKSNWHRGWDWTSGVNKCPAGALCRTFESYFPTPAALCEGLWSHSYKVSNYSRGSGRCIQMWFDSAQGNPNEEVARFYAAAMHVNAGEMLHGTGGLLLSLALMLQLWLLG
Chain of FRα (P15328 25-257): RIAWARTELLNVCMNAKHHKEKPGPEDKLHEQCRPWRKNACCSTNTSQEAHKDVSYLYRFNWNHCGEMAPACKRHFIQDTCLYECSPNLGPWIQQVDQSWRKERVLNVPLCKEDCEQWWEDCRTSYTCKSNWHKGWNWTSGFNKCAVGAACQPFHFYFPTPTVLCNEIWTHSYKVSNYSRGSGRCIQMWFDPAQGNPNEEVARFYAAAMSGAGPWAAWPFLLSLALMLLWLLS

Structure (SMILES)	IC50 [1, 9]	tumor growth delay (T–C value) [2]	inhibition of TS [3]	inhibition of DHFR [4]	further results
Nc1nc2[nH]c(CCCc3ccc(C(=O)N[C@@H](CCC(=O)O)C(=O)O)s3)cc2c(=O)[nH]1 [compound 4]	0.26 nM	13 days	–	–	–
C#CCC(Cc1cnc2nc(N)nc(N)c2n1)c1ccc(C(=O)N[C@@H](CCC(=O)O)C(=O)O)cc1 (stereo partly drawn) [PDX, N-(4-{1-[(2,4-diaminopteridin-6-yl)methyl]but-3-yn-1-yl}-benzoyl)-L-glutamic acid]	0.47 nM	–	–	–	IC50 ([1]; read-out: IC50 for inhibition of proliferation, KB (+FA)): 1.94 nM
Nc1nc(N)c2c(CCCc3cc(C(=O)N[C@@H](CCC(=O)O)C(=O)O)cs3)coc2n1 [compound 8, (S)-2-({5-[3-(2,4-Diamino-furo[2,3-d]pyrimidin-5-yl)-propyl]-thiophene-3-carbonyl}-amino)-pentanedioic Acid]	–	–	Neither 6 nor 8 were potent inhibitors of DHFR or TS	Neither 6 nor 8 were potent inhibitors of DHFR or TS	–
Nc1nc2[nH]c(CCCc3cc(C(=O)N[C@@H](CCC(=O)O)C(=O)O)cs3)cc2c(=O)[nH]1 [compound 7, (S)-2-({5-[3-(2-Amino-4-oxo-4,7-dihydro-3H-pyrrolo[2,3-d]-pyrimidin-6-yl)-propyl]-thiophene-3-carbonyl}-amino)-pentanedioic Acid]	–	13 days	–	–	fold more potent as inhibitor of human GARFTase than 4 [5]: ~ 7 fold; fold more potent as inhibitor of human GARFTase than PMX [5]: > 100 fold; relative binding affinity to FRα, % of that for folic acid [6]: approximately 60 % of that for folic acid; PCFT uptake of [3H]7 in excess of that for [3H]PMX ([7]; 0.5 μM, pH 5.5, 37 °C): ~ 40%; Vmax, PCFT transport, pH 5.5 ([7]; pH 5.5): 24.62 (±6.60) pmol/mg/min; Vmax, PCFT transport, pH 6.8 ([7]; pH 6.8): 3.0 (±0.3) pmol/mg/min; relative binding affinity to FRβ, % of the affinity for folic acid [8]: 35–40 % of the affinity for folic acid
Nc1nc(N)c2c(CCCc3csc(C(=O)N[C@@H](CCC(=O)O)C(=O)O)c3)coc2n1 [compound 6, (S)-2-({4-[3-(2,4-Diamino-furo[2,3-d]pyrimidin-5-yl)-propyl]-thiophene-2 carbonyl}-amino)-pentanedioic Acid]	–	–	Neither 6 nor 8 were potent inhibitors of DHFR or TS	Neither 6 nor 8 were potent inhibitors of DHFR or TS	–
